The source of these data is paper PMC8213057, “Targeting ALK2: An Open Science Approach to Developing Therapeutics for the Treatment of Diffuse Intrinsic Pontine Glioma” (Journal of Medicinal Chemistry, 2020).

One experiment deals with STK32C/YANK3 (Homo sapiens, UniProt Q86UX6). Put plainly: biochemical. The conditions noted are these: read-out: % enzyme activity, 1 μM; Run 1, Run 2.
A further experiment addresses MSK2/RPS6KA4 (Homo sapiens, UniProt O75676). The experiment in a line: biochemical. The conditions noted are these: read-out: % enzyme activity, 1 μM; Run 1, Run 2.
In the next experiment the target is T1, P38d/MAPK13 (Homo sapiens, UniProt O15264).
T1 sequence (O15264 1-365): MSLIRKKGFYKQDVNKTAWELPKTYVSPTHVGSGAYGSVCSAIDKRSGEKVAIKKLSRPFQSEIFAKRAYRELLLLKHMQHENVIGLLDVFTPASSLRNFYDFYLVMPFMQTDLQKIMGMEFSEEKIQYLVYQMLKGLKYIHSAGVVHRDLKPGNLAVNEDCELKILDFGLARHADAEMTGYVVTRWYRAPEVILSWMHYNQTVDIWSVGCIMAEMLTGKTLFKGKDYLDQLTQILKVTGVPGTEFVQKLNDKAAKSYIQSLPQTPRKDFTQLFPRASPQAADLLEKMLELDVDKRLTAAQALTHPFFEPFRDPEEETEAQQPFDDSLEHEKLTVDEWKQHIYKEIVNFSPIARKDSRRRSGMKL
The conditions noted are these: 1 μM; Run 1, Run 2.

In the next experiment the target is BTK (Homo sapiens, UniProt Q06187). The conditions noted are these: 1 μM; Run 1, Run 2.
Sequence of BTK (Q06187 whole entry): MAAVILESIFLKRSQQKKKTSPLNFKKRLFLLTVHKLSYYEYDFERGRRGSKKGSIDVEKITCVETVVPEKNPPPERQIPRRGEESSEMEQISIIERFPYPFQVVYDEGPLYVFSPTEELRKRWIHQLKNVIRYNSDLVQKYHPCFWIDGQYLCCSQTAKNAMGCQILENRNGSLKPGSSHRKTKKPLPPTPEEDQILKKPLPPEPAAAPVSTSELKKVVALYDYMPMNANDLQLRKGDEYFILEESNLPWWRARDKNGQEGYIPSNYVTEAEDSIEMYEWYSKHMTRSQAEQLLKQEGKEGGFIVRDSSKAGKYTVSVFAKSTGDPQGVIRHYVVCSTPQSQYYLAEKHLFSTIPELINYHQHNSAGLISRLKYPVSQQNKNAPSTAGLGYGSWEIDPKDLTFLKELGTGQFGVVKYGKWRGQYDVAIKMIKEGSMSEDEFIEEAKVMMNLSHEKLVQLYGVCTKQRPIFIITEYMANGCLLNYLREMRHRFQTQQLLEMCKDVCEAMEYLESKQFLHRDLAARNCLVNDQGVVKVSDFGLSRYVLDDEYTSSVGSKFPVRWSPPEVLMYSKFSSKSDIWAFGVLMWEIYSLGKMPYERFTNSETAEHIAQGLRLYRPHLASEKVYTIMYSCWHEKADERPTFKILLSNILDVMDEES
The target in the next experiment is T2, ALK4/ACVR1B (Homo sapiens, UniProt P36896).
T2 construct: purchased Reaction Biology Corporation
T2 sequence (P36896 24-505): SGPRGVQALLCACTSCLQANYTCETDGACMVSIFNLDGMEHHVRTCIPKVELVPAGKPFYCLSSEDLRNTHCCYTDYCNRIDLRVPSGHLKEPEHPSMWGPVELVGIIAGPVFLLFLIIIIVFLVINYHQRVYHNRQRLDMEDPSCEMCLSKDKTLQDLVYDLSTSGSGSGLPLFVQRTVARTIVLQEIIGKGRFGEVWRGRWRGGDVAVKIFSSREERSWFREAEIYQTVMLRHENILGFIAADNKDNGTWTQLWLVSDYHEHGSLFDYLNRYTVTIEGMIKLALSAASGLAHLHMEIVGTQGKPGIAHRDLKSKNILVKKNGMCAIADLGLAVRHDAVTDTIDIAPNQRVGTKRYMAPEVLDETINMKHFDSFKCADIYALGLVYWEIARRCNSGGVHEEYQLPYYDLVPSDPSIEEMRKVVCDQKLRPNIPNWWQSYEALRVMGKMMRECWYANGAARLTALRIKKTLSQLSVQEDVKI
The experiment in a line: 375-member kinase panel. The class given is biochemical. The following applies: Run 1, Run 2; for % enzyme activity: 1 μM; for remaining activity at 1 µM: read-out: % enzyme activity, 1 μM.

Another experiment addresses T3, STK22D/TSSK1 (Homo sapiens, UniProt Q9BXA7).
T3 sequence (Q9BXA7 1-367): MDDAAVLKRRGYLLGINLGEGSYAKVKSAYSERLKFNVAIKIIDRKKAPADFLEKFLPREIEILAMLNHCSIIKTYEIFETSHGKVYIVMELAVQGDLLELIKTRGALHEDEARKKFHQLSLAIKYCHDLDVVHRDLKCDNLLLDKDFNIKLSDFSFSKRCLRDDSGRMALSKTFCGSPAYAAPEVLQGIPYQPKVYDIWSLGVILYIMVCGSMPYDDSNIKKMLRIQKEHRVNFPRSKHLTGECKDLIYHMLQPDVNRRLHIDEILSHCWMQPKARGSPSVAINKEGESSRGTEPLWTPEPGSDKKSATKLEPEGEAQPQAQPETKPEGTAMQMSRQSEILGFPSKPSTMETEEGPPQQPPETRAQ
The conditions noted are these: 1 μM; Run 1, Run 2.

Another experiment deals with MAPKAPK2 (Homo sapiens, UniProt P49137). Put plainly: biochemical. The following applies: read-out: % enzyme activity, 1 μM; Run 1, Run 2.
Sequence of MAPKAPK2 (P49137 whole entry): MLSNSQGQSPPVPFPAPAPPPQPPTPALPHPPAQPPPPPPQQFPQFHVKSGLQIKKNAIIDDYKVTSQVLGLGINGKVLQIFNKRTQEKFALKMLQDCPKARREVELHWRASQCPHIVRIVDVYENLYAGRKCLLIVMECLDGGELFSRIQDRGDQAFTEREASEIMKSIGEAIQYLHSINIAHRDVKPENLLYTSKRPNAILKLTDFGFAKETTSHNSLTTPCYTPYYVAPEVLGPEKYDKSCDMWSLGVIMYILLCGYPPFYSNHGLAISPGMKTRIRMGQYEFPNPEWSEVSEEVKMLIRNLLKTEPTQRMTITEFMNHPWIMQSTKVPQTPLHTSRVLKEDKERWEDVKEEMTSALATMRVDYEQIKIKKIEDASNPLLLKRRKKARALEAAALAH
Another experiment deals with STK21/CIT (Homo sapiens, UniProt O14578). The experiment in a line: biochemical. The conditions noted are these: read-out: % enzyme activity, 1 μM; Run 1, Run 2.
Sequence of STK21/CIT (O14578 whole entry): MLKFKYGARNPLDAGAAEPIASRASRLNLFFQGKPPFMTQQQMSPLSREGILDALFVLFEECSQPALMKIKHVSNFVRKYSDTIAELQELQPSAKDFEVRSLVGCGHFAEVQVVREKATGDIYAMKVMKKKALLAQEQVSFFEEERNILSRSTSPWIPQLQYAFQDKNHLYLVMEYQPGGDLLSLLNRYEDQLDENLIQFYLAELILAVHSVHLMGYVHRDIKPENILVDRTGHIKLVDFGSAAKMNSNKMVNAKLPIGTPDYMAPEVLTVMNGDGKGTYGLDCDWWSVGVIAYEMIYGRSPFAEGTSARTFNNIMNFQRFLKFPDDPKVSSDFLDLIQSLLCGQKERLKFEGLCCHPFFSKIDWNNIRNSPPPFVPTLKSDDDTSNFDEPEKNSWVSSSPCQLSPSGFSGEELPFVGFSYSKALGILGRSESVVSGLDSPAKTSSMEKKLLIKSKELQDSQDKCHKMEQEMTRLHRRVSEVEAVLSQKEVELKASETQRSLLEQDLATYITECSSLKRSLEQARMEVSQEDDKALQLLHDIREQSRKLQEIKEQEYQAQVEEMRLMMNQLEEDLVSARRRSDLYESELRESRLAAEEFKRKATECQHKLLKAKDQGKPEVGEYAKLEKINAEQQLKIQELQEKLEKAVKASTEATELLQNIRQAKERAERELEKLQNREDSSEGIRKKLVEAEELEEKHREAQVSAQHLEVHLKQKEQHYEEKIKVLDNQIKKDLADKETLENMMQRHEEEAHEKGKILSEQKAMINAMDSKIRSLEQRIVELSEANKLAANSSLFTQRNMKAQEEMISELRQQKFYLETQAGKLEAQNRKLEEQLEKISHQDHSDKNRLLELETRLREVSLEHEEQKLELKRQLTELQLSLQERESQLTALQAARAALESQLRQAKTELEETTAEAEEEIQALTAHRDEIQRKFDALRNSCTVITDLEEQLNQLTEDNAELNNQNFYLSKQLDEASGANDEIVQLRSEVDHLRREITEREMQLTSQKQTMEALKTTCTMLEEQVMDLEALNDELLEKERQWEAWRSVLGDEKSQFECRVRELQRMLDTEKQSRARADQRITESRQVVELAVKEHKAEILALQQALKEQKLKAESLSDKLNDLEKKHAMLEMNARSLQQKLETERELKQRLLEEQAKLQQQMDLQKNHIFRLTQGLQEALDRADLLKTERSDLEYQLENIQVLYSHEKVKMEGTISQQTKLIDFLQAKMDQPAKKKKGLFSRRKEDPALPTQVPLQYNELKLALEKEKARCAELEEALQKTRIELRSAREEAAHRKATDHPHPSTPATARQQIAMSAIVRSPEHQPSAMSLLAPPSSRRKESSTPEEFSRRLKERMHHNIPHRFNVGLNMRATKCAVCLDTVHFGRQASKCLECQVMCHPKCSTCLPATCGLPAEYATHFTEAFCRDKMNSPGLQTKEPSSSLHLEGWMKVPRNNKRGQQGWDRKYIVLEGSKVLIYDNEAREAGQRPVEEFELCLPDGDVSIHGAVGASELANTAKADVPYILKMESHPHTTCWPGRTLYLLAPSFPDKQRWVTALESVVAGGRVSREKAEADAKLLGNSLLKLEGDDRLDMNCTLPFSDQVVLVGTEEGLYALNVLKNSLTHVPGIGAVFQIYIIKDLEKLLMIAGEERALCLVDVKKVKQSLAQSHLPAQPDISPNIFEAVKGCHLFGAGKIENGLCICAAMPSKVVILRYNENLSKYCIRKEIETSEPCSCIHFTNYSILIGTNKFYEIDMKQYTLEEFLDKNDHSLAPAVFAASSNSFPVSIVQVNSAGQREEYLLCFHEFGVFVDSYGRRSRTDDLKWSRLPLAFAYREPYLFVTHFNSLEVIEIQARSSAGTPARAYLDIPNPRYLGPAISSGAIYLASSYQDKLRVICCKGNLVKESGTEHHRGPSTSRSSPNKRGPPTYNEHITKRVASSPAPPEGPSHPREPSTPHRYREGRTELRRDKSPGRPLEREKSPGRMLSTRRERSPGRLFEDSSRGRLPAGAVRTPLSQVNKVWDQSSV
The target in the next experiment is SYK (Homo sapiens, UniProt P43405). The conditions noted are these: 1 μM; Run 1, Run 2.
The target of a further experiment is T4, RIPK4 (Homo sapiens, UniProt P57078).
T4 sequence (P57078 1-832): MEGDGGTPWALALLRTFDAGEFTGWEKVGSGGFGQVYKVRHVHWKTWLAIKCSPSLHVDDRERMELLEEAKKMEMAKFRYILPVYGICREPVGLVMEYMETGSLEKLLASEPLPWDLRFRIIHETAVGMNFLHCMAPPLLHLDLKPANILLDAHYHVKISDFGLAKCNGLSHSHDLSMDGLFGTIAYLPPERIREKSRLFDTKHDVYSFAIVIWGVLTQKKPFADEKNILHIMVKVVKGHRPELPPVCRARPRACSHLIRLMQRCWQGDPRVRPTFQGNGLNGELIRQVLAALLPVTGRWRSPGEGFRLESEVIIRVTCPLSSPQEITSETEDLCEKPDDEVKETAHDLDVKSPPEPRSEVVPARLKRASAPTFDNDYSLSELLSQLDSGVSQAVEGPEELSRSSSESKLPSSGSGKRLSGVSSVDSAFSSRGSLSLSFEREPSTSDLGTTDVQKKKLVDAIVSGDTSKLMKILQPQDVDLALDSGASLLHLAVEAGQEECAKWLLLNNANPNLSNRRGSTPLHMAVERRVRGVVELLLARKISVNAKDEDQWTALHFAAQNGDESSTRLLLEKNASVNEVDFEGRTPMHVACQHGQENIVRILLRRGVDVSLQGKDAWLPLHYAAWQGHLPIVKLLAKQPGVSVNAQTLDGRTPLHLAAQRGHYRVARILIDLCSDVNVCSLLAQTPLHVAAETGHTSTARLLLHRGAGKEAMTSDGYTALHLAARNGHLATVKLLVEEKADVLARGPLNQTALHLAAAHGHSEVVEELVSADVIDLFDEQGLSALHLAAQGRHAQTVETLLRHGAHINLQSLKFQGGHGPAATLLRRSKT
The conditions noted are these: 1 μM; Run 1, Run 2.

The target in another experiment is AKT2 (Homo sapiens, UniProt P31751). The experiment in a line: biochemical. The following applies: read-out: % enzyme activity, 1 μM; Run 1, Run 2.
Sequence of AKT2 (P31751 whole entry): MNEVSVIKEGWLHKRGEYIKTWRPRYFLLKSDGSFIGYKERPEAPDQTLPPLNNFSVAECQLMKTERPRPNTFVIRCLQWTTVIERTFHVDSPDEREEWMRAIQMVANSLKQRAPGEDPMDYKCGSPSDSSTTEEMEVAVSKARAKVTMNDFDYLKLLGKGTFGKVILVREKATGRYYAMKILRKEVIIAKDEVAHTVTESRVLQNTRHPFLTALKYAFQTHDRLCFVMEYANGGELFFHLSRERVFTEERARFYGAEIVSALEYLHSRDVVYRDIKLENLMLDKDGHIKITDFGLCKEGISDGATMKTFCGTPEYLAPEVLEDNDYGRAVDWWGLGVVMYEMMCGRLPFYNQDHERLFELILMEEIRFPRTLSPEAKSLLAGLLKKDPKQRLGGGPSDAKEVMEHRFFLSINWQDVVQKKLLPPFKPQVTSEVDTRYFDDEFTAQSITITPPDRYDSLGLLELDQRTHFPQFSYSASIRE

Where only a bound is given, the exact number is not on record here.

Sequence of MSK2/RPS6KA4 (O75676 whole entry): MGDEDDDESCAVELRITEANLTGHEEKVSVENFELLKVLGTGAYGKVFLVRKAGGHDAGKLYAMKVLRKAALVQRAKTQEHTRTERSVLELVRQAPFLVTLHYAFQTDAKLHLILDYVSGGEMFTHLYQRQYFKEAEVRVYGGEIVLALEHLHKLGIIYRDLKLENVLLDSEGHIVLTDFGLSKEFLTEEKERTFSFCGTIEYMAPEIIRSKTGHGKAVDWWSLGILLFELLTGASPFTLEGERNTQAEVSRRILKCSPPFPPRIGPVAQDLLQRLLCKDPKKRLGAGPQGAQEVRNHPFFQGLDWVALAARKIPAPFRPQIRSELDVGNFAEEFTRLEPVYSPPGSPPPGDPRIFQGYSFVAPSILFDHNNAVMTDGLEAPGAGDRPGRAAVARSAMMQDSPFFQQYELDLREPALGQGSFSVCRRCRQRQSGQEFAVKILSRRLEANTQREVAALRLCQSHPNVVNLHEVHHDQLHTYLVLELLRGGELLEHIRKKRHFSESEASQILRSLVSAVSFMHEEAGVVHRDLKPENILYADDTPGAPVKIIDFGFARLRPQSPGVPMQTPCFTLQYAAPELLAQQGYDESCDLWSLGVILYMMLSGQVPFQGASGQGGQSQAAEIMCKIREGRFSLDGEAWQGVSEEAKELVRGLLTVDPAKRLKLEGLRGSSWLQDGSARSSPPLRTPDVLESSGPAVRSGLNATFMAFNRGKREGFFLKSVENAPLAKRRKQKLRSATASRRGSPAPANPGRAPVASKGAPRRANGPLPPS
Sequence of STK32C/YANK3 (Q86UX6 whole entry): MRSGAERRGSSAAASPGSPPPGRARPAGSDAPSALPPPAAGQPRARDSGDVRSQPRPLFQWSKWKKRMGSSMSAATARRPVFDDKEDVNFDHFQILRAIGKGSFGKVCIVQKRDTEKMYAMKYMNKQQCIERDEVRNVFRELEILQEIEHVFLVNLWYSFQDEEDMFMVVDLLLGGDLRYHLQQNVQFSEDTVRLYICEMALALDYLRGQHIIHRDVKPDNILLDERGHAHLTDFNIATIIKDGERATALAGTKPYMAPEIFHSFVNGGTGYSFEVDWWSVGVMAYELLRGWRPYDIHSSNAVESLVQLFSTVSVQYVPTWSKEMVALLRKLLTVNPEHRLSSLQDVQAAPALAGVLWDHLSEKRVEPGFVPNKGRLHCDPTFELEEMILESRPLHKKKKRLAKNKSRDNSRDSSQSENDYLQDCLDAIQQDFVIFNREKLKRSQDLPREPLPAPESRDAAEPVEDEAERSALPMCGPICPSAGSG

As to `COc1cc(-c2cncc(-c3ccc(N4CCN(C)CC4)cc3)c2C)cc(F)c1C(N)=O` [Compound 26a, 2-Fluoro-6-methoxy-4-(4-methyl-5-(4-(4-methylpiperazin-1-yl)phenyl)pyridin-3-yl)benzamide], the remaining activity at 1 µM on STK32C/YANK3 was 86.8%; at MSK2/RPS6KA4, 97.1%; at ALK4/ACVR1B, 68.8%; at MAPKAPK2, 103%; on STK21/CIT it was 88.8%; on AKT2 it was 91.9%. The CYP inhibition on CYP2C19 is more than 50 µM. The “% enzyme activity” value is 98.26% on P38d/MAPK13; 94.35% at BTK; 68.79% at ALK4/ACVR1B; 97.01% on STK22D/TSSK1; 100.12% at SYK; 70.28% on RIPK4.

For the compound `COc1cc(-c2cncc(-c3ccc(N4C[C@@H](C)N(C)[C@@H](C)C4)cc3)c2C)cc(F)c1C(N)=O` [Compound 26c, 2-Fluoro-6-methoxy-4-(4-methyl-5-(4-((3R,5S)-3,4,5-trimethylpiperazin-1-yl)phenyl)pyridin-3-yl)benzamide], the remaining activity at 1 µM on STK32C/YANK3 came out at 93.3%; on MSK2/RPS6KA4, 95.4%; on ALK4/ACVR1B, 82.4%; at MAPKAPK2, 95.4%; on STK21/CIT it was 89.1%; at AKT2, 93%. Moreover, the CYP inhibition at CYP2C19 is more than 50 µM. Besides, the “% enzyme activity” value amounted to 97.52% on P38d/MAPK13; 94.07% on BTK; 81.71% at ALK4/ACVR1B; 99.16% on STK22D/TSSK1; 101.24% at SYK; 82.04% at RIPK4.
